These compounds were tested on γ-secretase (assay: Cellular γ-secretase assay (inhibition of Aβ42 secretion, AlphaLisa)). Conditions: human neuroglioma H4 cells overexpressing human APP695 Swedish double mutation, 24 hr compound incubation.
Format: cell-based
Experimental: Cellular γ-Secretase Assay
Human neuroglioma H4 cells overexpressing human APP695 with the Swedish double mutation (K595N/M596L) were plated at 30,000 cells/well/100 μl in 96-well plates in IMDM media containing 10% FCS, 0.2 mg/l Hygromycin B and incubated at 37° C., 5% CO2.
3-4 hr post plating, compounds are a diluted in media and 50 μl is added as 1.5-fold concentrate to achieve the final concentration. Compound incubation is performed for 24 hr. Final doses typically range from 4 μm down to 0.0013 μm in half-log steps resulting in a eight point dose response curve.
Appropriate controls using vehicle only and reference compound were applied to this assay. The final concentration of Me2SO was 0.4%.
After incubation at 37° C., 5% CO2, the supernatant was subjected to quantification of secreted Aβ42 by the means of an AlphaLisa assay kit (Human Amyloid beta 1-42 Kit: Cat # AL203C, Perkin Elmer). 20 μl of the cell culture supernatant was transferred to an assay plate. Then 10 μl of a mixture of the AlphaLisa coupled capture antibody and the biotinylated detection antibody was added and incubated for 3 hours at room temperature while softly shaking the assay plate. After a further addition of 20 μl of the Donor beads the assay plate was incubated for 30 min at room temperature and constant shaking without exposure to direct light. The assay plate was then read on a Paradigm AlphaLisa Reader using the build-in program with excitation at 680 nm and emission at […].
The measured signals were then used to calculate IC50 values for inhibition of Aβ42 secretion by nonlinear regression fit analysis using XLfit 5.3 software (IDBS).

EC50 | SMILES
25.1 nM | Cc1ncn(-c2ccc(Nc3nc4n(n3)CCCN4c3ccc(F)c(F)c3)cc2C#N)n1 [Example 30, 5-[[4-(3,4-difluorophenyl)-6,7-dihydro-5H-[1,2,4]triazolo[1,5-a]pyrimidin-2-yl]amino]-2-(3-methyl-1,2,4-triazol-1-yl)benzonitrile]
30.4 nM | COc1cc(Nc2nc3n(n2)CCCN3c2cccc(F)c2)ccc1-n1cnc(C)n1 [Example 31, 4-(3-fluorophenyl)-N-[3-methoxy-4-(3-methyl-1,2,4-triazol-1-yl)phenyl]-6,7-dihydro-5H-[1,2,4]triazolo[1,5-a]pyrimidin-2-amine]
14.1 nM | COc1cc(Nc2nc3n(n2)CCCN3c2cccc(F)c2)ccc1-n1cnc(Cl)c1 [Example 32, N-[4-(4-chloroimidazol-1-yl)-3-methoxy-phenyl]-4-(3-fluorophenyl)-6,7-dihydro-5H-[1,2,4]triazolo[1,5-a]pyrimidin-2-amine]
35.2 nM | COc1cc(Nc2nc3n(n2)CCCN3c2ccc(F)cc2)ccc1-n1cnc(C)n1 [Example 33, 4-(4-fluorophenyl)-N-[3-methoxy-4-(3-methyl-1,2,4-triazol-1-yl)phenyl]-6,7-dihydro-5H-[1,2,4]triazolo[1,5-a]pyrimidin-2-amine]
10 nM | COc1cc(Nc2nc3n(n2)CCCN3c2ccc(F)cc2)ccc1-n1cnc(Cl)c1 [Example 34, N-[4-(4-chloroimidazol-1-yl)-3-methoxy-phenyl]-4-(4-fluorophenyl)-6,7-dihydro-5H-[1,2,4]triazolo[1,5-a]pyrimidin-2-amine]
21 nM | N#Cc1cc(Nc2nc3n(n2)CCCN3c2ccc(F)cc2)ccc1-n1cnc(Cl)c1 [Example 35, 2-(4-chloroimidazol-1-yl)-5-[[4-(4-fluorophenyl)-6,7-dihydro-5H-[1,2,4]triazolo[1,5-a]pyrimidin-2-yl]amino]benzonitrile]
39.9 nM | Fc1ccc(N2CCCn3nc(Nc4ccc(-n5cnc(Cl)c5)c(F)c4)nc32)cc1 [Example 36, N-[4-(4-chloroimidazol-1-yl)-3-fluoro-phenyl]-4-(4-fluorophenyl)-6,7-dihydro-5H-[1,2,4]triazolo[1,5-a]pyrimidin-2-amine]
34.2 nM | Cc1ncn(-c2ccc(Nc3nc4n(n3)CCCN4c3ccc(F)cc3)cc2OC(F)F)n1 [Example 37, N-[3-(difluoromethoxy)-4-(3-methyl-1,2,4-triazol-1-yl)phenyl]-4-(4-fluorophenyl)-6,7-dihydro-5H-[1,2,4]triazolo[1,5-a]pyrimidin-2-amine]
13.8 nM | COc1cc(Nc2nc3n(n2)CCCN3c2ccc(F)cc2)cnc1-n1cnc(Cl)c1 [Example 38, N-[6-(4-chloroimidazol-1-yl)-5-methoxy-3-pyridyl]-4-(4-fluorophenyl)-6,7-dihydro-5H-[1,2,4]triazolo[1,5-a]pyrimidin-2-amine]
17.5 nM | Cc1ncc(-c2ncc(Nc3nc4n(n3)CCCN4c3ccc(F)cc3)cc2F)o1 [Example 39, N-[5-fluoro-6-(2-methyloxazol-5-yl)-3-pyridyl]-4-(4-fluorophenyl)-6,7-dihydro-5H-[1,2,4]triazolo[1,5-a]pyrimidin-2-amine]
20.3 nM | COc1cc(Nc2nc3n(n2)CCCN3c2ccc(F)c(F)c2)ccc1-n1cnc(F)c1 [Example 40, 4-(3,4-difluorophenyl)-N-[4-(4-fluoroimidazol-1-yl)-3-methoxy-phenyl]-6,7-dihydro-5H-[1,2,4]triazolo[1,5-a]pyrimidin-2-amine]
14.2 nM | COc1cc(Nc2nc3n(n2)CCCN3c2cc(F)cc(F)c2)ccc1-n1cnc(C)n1 [Example 41, 4-(3,5-difluorophenyl)-N-[3-methoxy-4-(3-methyl-1,2,4-triazol-1-yl)phenyl]-6,7-dihydro-5H-[1,2,4]triazolo[1,5-a]pyrimidin-2-amine]
7.4 nM | COc1cc(Nc2nc3n(n2)CCCN3c2cc(F)cc(F)c2)ccc1-n1cnc(Cl)c1 [Example 42, N-[4-(4-chloroimidazol-1-yl)-3-methoxy-phenyl]-4-(3,5-difluorophenyl)-6,7-dihydro-5H-[1,2,4]triazolo[1,5-a]pyrimidin-2-amine]
12.6 nM | COc1cc(Nc2nc3n(n2)CCCN3c2ccc(F)cc2)ccc1-c1cnc(C)o1 [Example 43, 4-(4-fluorophenyl)-N-[3-methoxy-4-(2-methyloxazol-5-yl)phenyl]-6,7-dihydro-5H-[1,2,4]triazolo[1,5-a]pyrimidin-2-amine]
65.4 nM | COc1cc(Nc2nc3n(n2)CCN3c2ccc(C(F)(F)F)cc2)ccc1-n1cnc(Cl)c1 [Example 44, N-[4-(4-chloroimidazol-1-yl)-3-methoxy-phenyl]-4-[4-(trifluoromethyl)phenyl]-5,6-dihydroimidazo[1,2-b][1,2,4]triazol-2-amine]
30 nM | COc1cc(Nc2nc3n(n2)CCN3c2ccc(F)c(F)c2F)ccc1-n1cnc(Cl)c1 [Example 45, N-[4-(4-chloroimidazol-1-yl)-3-methoxy-phenyl]-4-(2,3,4-trifluorophenyl)-5,6-dihydroimidazo[1,2-b][1,2,4]triazol-2-amine]
40.4 nM | COc1cc(Nc2nc3n(n2)CCN3c2ccc(F)c(F)c2)ccc1-n1cnc(Cl)c1 [Example 46, N-[4-(4-chloroimidazol-1-yl)-3-methoxy-phenyl]-4-(3,4-difluorophenyl)-5,6-dihydroimidazo[1,2-b][1,2,4]triazol-2-amine]
52.1 nM | Cc1cn(-c2ccc(Nc3nc4n(n3)CCCN4c3ccc(F)c(F)c3)cc2)nn1 [Example 47, 4-(3,4-difluorophenyl)-N-[4-(4-methyltriazol-1-yl)phenyl]-6,7-dihydro-5H-[1,2,4]triazolo[1,5-a]pyrimidin-2-amine]
94.7 nM | COc1cc(Nc2nc3n(n2)CCCN3c2ccccc2)ccc1-n1cnc(C)n1 [Example 48, N-[3-methoxy-4-(3-methyl-1,2,4-triazol-1-yl)phenyl]-4-phenyl-6,7-dihydro-5H-[1,2,4]triazolo[1,5-a]pyrimidin-2-amine]

Source: patent US10647721B2, “Bicyclic heteroaryl derivatives” (Hoffmann-La Roche Inc., priority 2016, dated 2020)
